Test results as given in patent publication US20050124664A1, “Urea thiadiazole inhibitors of plasminogen activator inhibior-1” (priority 2003, published 2005).

melting point	Structure (SMILES)
305 °C	COC(=O)c1cccc(NC(=O)Nc2nnc(-c3cc(Cl)cc(Cl)c3O)s2)c1 [Example 3, 3-{3-[5-(3,5-Dichloro-2-hydroxy-phenyl)-[1,3,4]thiadiazol-2-yl]-ureido}-benzoic Acid Methyl Ester]
330 °C	COC(=O)c1ccc(NC(=O)Nc2nnc(-c3cc(Cl)cc(Cl)c3O)s2)cc1 [Example 4, 4-{3-[5-(3,5-Dichloro-2-hydroxy-phenyl)-[1,3,4]thiadiazol-2-yl]-ureido}-benzoic Acid Methyl Ester]
